For one compound, IC50 results are on record in ChEMBL document CHEMBL1157293, “Sylviside, a diterpene glucoside derivative from Gnaphalium sylvaticum” (J Nat Prod, 2006).

Experiment [1] relates to HeLa. The experiment can be described thus: Cytotoxicity against wild type human HeLa cells by MTT assay. The format is functional, cell-based. In general terms: Tetrazolium assays rely on reduction of a dye to a coloured formazan, in cell work by metabolically active cells.
In experiment [2] the test system is HeLa. The experiment can be described thus: Cytotoxicity against MDR1-G185 overexpressing human HeLa cells by MTT assay. The format is functional, cell-based.

The IC50 is the concentration needed to halve the response being measured. A higher IC50 goes with a need for much substance. In the case of `C=C1[C@@H]2CC[C@H]3[C@]4(C)C[C@H](O[C@@H]5O[C@H](CO)[C@@H](O)[C@H](O)[C@H]5OC(=O)/C(C)=C\C)CC(C(=O)O)(C(=O)O)[C@H]4CC[C@]3(C2)[C@H]1O` [SYLVISIDE], the IC50 in the experiment with HeLa [1] worked out at 325 µM; in the experiment on HeLa [2], 1700 µM.
